# PubChem BioAssay AID328 (DTP/NCI, 2004)
# Where “and” joins values, the source holds several entries; their conditions need not be identical. Identical values can stand only once. Inconclusive results and toxic doses are left out. Non-standard residues stand in square brackets, D forms with d. Residues, ends and D or L forms follow the SMILES beside them. ξ: configuration not given here. Ac5c = NC1(C(=O)O)CCCC1; ξS = NC(CO)C(=O)O
# System: BDF1 mice, P388 leukemia ip, median survival T/C
# Assay: NCI In Vivo Anticancer Drug Screen. Data for tumor model P388 Leukemia (intraperitoneal) in B6D2F1 (BDF1) mice
# Conditions: endpoint: median survival time, higher = longer survival
# In short: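 Transplantable tumour in mice; compound vs vehicle dosing; survival scored; ratio of treated to control reported.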
# [1] = dose: 6.25 mg/kg/injection, schedule: Q04DX003 (ip), vehicle: water
# [2] = dose: 12.5 mg/kg/injection, schedule: Q04DX003 (ip), vehicle: water
# [3] = dose: 25.0 mg/kg/injection, schedule: Q04DX003 (ip), vehicle: water
# [4] = dose: 50.0 mg/kg/injection, schedule: Q04DX003 (ip), vehicle: water
# [5] = dose: 50.0 mg/kg/injection, schedule: Q01DX009 (ip), vehicle: saline with Tween-80
# [6] = dose: 100.0 mg/kg/injection, schedule: Q01DX009 (ip), vehicle: saline with Tween-80
# [7] = dose: 200.0 mg/kg/injection, schedule: Q01DX009 (ip), vehicle: saline with Tween-80
# [8] = dose: 25.0 mg/kg/injection, schedule: Q01DX009 (ip), vehicle: saline with Tween-80
# [9] = dose: 50.0 mg/kg/injection, schedule: Q01DX001 (ip), vehicle: saline sonified
# [10] = dose: 100.0 mg/kg/injection, schedule: Q01DX001 (ip), vehicle: saline sonified
# [11] = dose: 100.0 mg/kg/injection, schedule: Q04DX003 (ip), vehicle: saline with Tween-80
# [12] = dose: 200.0 mg/kg/injection, schedule: Q04DX003 (ip), vehicle: saline with Tween-80
# [13] = dose: 400.0 mg/kg/injection, schedule: Q04DX003 (ip), vehicle: saline with Tween-80
smiles,measurement,setting,value
N#CCCN1CCCCCC1,T/C,"dose: 15.0 mg/kg/injection, schedule: Q01DX009 (ip), vehicle: saline with Tween-80",104 % of control
same,T/C,"dose: 30.0 mg/kg/injection, schedule: Q01DX009 (ip), vehicle: saline with Tween-80",89 % of control
same,T/C,"dose: 60.0 mg/kg/injection, schedule: Q01DX009 (ip), vehicle: saline with Tween-80",98 % of control
CN(C)CCCNC1=CC(=O)c2ccccc2C1=O,T/C,"dose: 1.56 mg/kg/injection, schedule: Q04DX003 (ip), vehicle: water",108 % of control
same,T/C,"dose: 3.12 mg/kg/injection, schedule: Q04DX003 (ip), vehicle: water",97 % of control and 98 % of control
same,T/C,"dose: 6.25 mg/kg/injection, schedule: Q01DX009 (ip), vehicle: water",99 % of control
same,T/C,[1],91 % of control and 101 % of control
same,T/C,"dose: 12.5 mg/kg/injection, schedule: Q01DX009 (ip), vehicle: water",103 % of control
same,T/C,[2],97 % of control and 102 % of control
same,T/C,"dose: 25.0 mg/kg/injection, schedule: Q01DX009 (ip), vehicle: water",110 % of control
same,T/C,[3],103 % of control and 119 % of control
same,T/C,"dose: 50.0 mg/kg/injection, schedule: Q01DX009 (ip), vehicle: water",94 % of control
same,T/C,[4],91 % of control
same,T/C,"dose: 100.0 mg/kg/injection, schedule: Q01DX009 (ip), vehicle: water",103 % of control
CC(C)NC(=O)c1ccccc1Sc1ccccc1,T/C,[5],100 % of control
same,T/C,[6],106 % of control
same,T/C,[7],108 % of control
OC(c1ccc(Cl)cc1)(c1ccc(Cl)cc1)C(F)(F)F,T/C,"dose: 100.0 mg/kg/injection, schedule: Q01DX009 (sc), vehicle: olive oil, sesame oil, peanut oil",96 % of control
same,T/C,"dose: 100.0 mg/kg/injection, schedule: Q04DX003 (sc), vehicle: olive oil, sesame oil, peanut oil",109 % of control
same,T/C,"dose: 200.0 mg/kg/injection, schedule: Q04DX003 (sc), vehicle: olive oil, sesame oil, peanut oil",100 % of control
same,T/C,"dose: 400.0 mg/kg/injection, schedule: Q04DX003 (sc), vehicle: olive oil, sesame oil, peanut oil",95 % of control
C=C(C)CNc1ccccc1,T/C,[8],119 % of control
same,T/C,[5],123 % of control
same,T/C,[6],103 % of control and 123 % of control
Cc1nc2ccccc2nc1CC(O)(c1ccccc1)c1ccccc1,T/C,[5],97 % of control
same,T/C,[6],103 % of control
same,T/C,[7],100 % of control
Cc1cc(=O)[nH]c2c1CCCCC2,T/C,[9],104 % of control
same,T/C,[10],95 % of control
CC(C)N1CCC(=O)NC1=O,T/C,"dose: 25.0 mg/kg/injection, schedule: Q01DX001 (ip), vehicle: saline sonified",104 % of control
same,T/C,[9],104 % of control
same,T/C,[10],100 % of control
Cc1ccc([N+](=O)[O-])cc1NC(=O)Oc1ccccc1,T/C,"dose: 100.0 mg/kg/injection, schedule: Q04DX003 (ip), vehicle: other",92 % of control
same,T/C,"dose: 200.0 mg/kg/injection, schedule: Q04DX003 (ip), vehicle: other",96 % of control
same,T/C,"dose: 400.0 mg/kg/injection, schedule: Q04DX003 (ip), vehicle: other",96 % of control
CC(=O)CC(C)=O.CC(=O)CC(C)=O.CC(=O)CC(C)=O.[Cr],T/C,"dose: 100.0 mg/kg/injection, schedule: Q04DX003 (ip), vehicle: saline",90 % of control
same,T/C,"dose: 200.0 mg/kg/injection, schedule: Q04DX003 (ip), vehicle: saline",90 % of control
same,T/C,"dose: 400.0 mg/kg/injection, schedule: Q04DX003 (ip), vehicle: saline",90 % of control
NC(CO)C(=O)NC1(C(=O)O)CCCC1 (configuration not stated) (H-[ξS]-[Ac5c]-OH),T/C,[6],109 % of control
same,T/C,[7],118 % of control
same,T/C,"dose: 400.0 mg/kg/injection, schedule: Q01DX009 (ip), vehicle: saline with Tween-80",95 % of control
c1ccc2c(c1)cc1c3nncn3ncn21,T/C,[5],90 % of control
same,T/C,[6],114 % of control
Cc1ccc(NCCNCC(C)(C)O)c2c(=O)c3ccccc3sc12,T/C,"dose: 12.5 mg/kg/injection, schedule: Q04DX003 (ip), vehicle: saline",100 % of control
same,T/C,"dose: 25.0 mg/kg/injection, schedule: Q04DX003 (ip), vehicle: saline",120 % of control
same,T/C,"dose: 50.0 mg/kg/injection, schedule: Q04DX003 (ip), vehicle: saline",120 % of control
same,T/C,"dose: 75.0 mg/kg/injection, schedule: Q04DX003 (ip), vehicle: saline",100 % of control and 115 % of control and 118 % of control
same,T/C,"dose: 115.0 mg/kg/injection, schedule: Q04DX003 (ip), vehicle: saline",115 % of control and 120 % of control
same,T/C,"dose: 170.0 mg/kg/injection, schedule: Q04DX003 (ip), vehicle: saline",115 % of control and 122 % of control
CCCCN(CCCC)CC(O)c1cc(Cl)cc2c1-c1ccc(Cl)cc1C2 (configuration not stated),T/C,[5],105 % of control
same,T/C,[6],114 % of control
same,T/C,[7],98 % of control
CN(C)c1ccc(/C=C\c2cc(=O)[nH]c3ccccc23)cc1,T/C,"dose: 100.0 mg/kg/injection, schedule: Q04DX003 (ip), vehicle: Klucel (hydroxypropylcellulose) (HPC)",87 % of control
same,T/C,"dose: 200.0 mg/kg/injection, schedule: Q04DX003 (ip), vehicle: Klucel (hydroxypropylcellulose) (HPC)",91 % of control
same,T/C,"dose: 400.0 mg/kg/injection, schedule: Q04DX003 (ip), vehicle: Klucel (hydroxypropylcellulose) (HPC)",87 % of control
CCOC(=O)c1c(OC(C)=O)cc2c(c1OC(C)=O)-c1ccccc1CC2,T/C,[11],90 % of control
same,T/C,[12],97 % of control
same,T/C,[13],99 % of control
C#CC(c1ccccc1)(c1ccccc1)n1ccnc1,T/C,[5],98 % of control
same,T/C,[6],100 % of control
same,T/C,[7],98 % of control
O=CNc1ccc(C(=O)O)cc1,T/C,[11],100 % of control
same,T/C,[12],104 % of control
same,T/C,[13],91 % of control
O=C(O)CNOCN1C(=O)c2ccccc2C1=O,T/C,"dose: 100.0 mg/kg/injection, schedule: Q01DX001 (ip), vehicle: Klucel (hydroxypropylcellulose) (HPC)",104 % of control
same,T/C,"dose: 200.0 mg/kg/injection, schedule: Q01DX001 (ip), vehicle: Klucel (hydroxypropylcellulose) (HPC)",91 % of control
same,T/C,"dose: 400.0 mg/kg/injection, schedule: Q01DX001 (ip), vehicle: Klucel (hydroxypropylcellulose) (HPC)",95 % of control
COC(=O)c1ccc(OP(=O)(N(C)C)N(C)C)cc1,T/C,"dose: 12.5 mg/kg/injection, schedule: Q01DX009 (ip), vehicle: saline with Tween-80",117 % of control
same,T/C,[8],115 % of control
CCOC(CN1CCN(CC(C)C(=O)c2ccccc2)CC1)c1ccccc1 (configuration not stated),T/C,[5],109 % of control
same,T/C,[6],118 % of control
COc1cccc2c1C(=O)c1c(O)c3c(c(O)c1C2=O)CC(O)(/C(C)=N/NC(=O)c1cc(C(F)(F)F)cc(C(F)(F)F)c1)CC3OC1CC(N)C(O)C(C)O1 (configuration not stated),T/C,"dose: 3.13 mg/kg/injection, schedule: Q04DX003 (ip), vehicle: water",113 % of control
same,T/C,[1],109 % of control
same,T/C,[2],153 % of control
same,T/C,[3],153 % of control
same,T/C,[4],118 % of control
O=NN(CCCl)C(=O)Nc1ccc(I)cc1,T/C,"dose: 0.44 mg/kg/injection, schedule: Q01DX009 (ip), vehicle: saline with Tween-80",113 % of control
same,T/C,"dose: 0.66 mg/kg/injection, schedule: Q01DX009 (ip), vehicle: saline with Tween-80",118 % of control
same,T/C,"dose: 0.75 mg/kg/injection, schedule: Q04DX003 (ip), vehicle: saline",100 % of control
same,T/C,"dose: 0.9 mg/kg/injection, schedule: Q01DX009 (ip), vehicle: saline",104 % of control
same,T/C,"dose: 1.5 mg/kg/injection, schedule: Q04DX003 (ip), vehicle: saline",109 % of control
same,T/C,"dose: 3.0 mg/kg/injection, schedule: Q04DX003 (ip), vehicle: saline",109 % of control
same,T/C,"dose: 3.6 mg/kg/injection, schedule: Q01DX009 (ip), vehicle: saline",150 % of control
same,T/C,"dose: 44.0 mg/kg/injection, schedule: Q04DX003 (ip), vehicle: saline sonified",150 % of control
same,T/C,"dose: 66.0 mg/kg/injection, schedule: Q04DX003 (ip), vehicle: saline sonified",160 % of control
same,T/C,[11],215 % of control
CC1=CC23C(COC(=O)C24CO4)C(C(=O)O)=CC3C1C (configuration not stated),T/C,"dose: 0.31 mg/kg/injection, schedule: Q01DX009 (ip), vehicle: Klucel (hydroxypropylcellulose) (HPC)",105 % of control
same,T/C,"dose: 0.63 mg/kg/injection, schedule: Q01DX009 (ip), vehicle: Klucel (hydroxypropylcellulose) (HPC)",113 % of control
same,T/C,"dose: 1.25 mg/kg/injection, schedule: Q01DX009 (ip), vehicle: Klucel (hydroxypropylcellulose) (HPC)",102 % of control and 117 % of control
CCN(CC)c1ccc(/C=C2/C=Cc3ccccc32)cc1,T/C,"dose: 100.0 mg/kg/injection, schedule: Q04DX003 (ip), vehicle: saline sonified",95 % of control
same,T/C,"dose: 200.0 mg/kg/injection, schedule: Q04DX003 (ip), vehicle: saline sonified",100 % of control
same,T/C,"dose: 400.0 mg/kg/injection, schedule: Q04DX003 (ip), vehicle: saline sonified",100 % of control
